From US8614216B2

Columns and labels:
[1] = Solution state chemical stability, HPLC analysis; format: physicochemical; details: sealed vial
Text: (§1) Samples were pulled at pre-determined time-points and analyzed for chemical stability.

[2] = Solid state chemical stability, HPLC analysis; format: physicochemical; details: open flask
Text: as §1

[3] = Compaction studies (Carver Press, tablet hardness tester); format: physicochemical; details: 200 mg at 5000 psi, 0.8 cm die
Protocol: The resulting tensile strength and thickness of the compacts were measured using a VK 200 Tablet Hardness Tester and Mitutoyo thickness gauge.

[4] = Moisture induced weight change in lactate salts; format: physicochemical; details: 55% RH; listed as Lactate-trial 3
physchem = details: 23 °C, water, thermodynamic from solid
[5] = Dynamic vapor sorption (DVS) hygroscopicity experiment; format: physicochemical
Protocol: All DVS measurements were carried out at 2.5% relative humidity change per hour.

[6] = Physical stability of the amorphous form on storage

SMILES: CC(O)C(=O)O.CN1CCN(c2ccc3nc(-c4c(N)c5c(F)cccc5[nH]c4=O)[nH]c3c2)CC1 [Form A]
- Area % at Time = 0 ([1]; 5° C.): 98.80 Area %
- Area % at Time = 7 days ([1]; 5° C.): 98.60 Area %
- Area % at Time = 0 ([1]; ambient temperature): 98.80 Area %
- Area % at Time = 7 days ([1]; ambient temperature): 98.71 Area %
- Area % at Time = 0 ([2]; 30° C./60% Relative humidity): 98.41 Area %
- Area % at Time = 6 weeks ([2]; 30° C./60% Relative humidity): 99.04 Area %
- Area % at Time = 0 ([2]; 40° C./70% Relative humidity): 98.46 Area %
- Area % at Time = 6 weeks ([2]; 40° C./70% Relative humidity): 98.55 Area %
- Forms Compact ([3]; listed as Lactate-trial 1): Yes
- Tensile strength of compact ([3]; listed as Lactate-trial 1): 13.8 SC—Strong Cobb
- Thickness of compact ([3]; listed as Lactate-trial 1): 3.06 mm
- Forms Compact ([3]; listed as Lactate-trial 2): Yes
- Tensile strength of compact ([3]; listed as Lactate-trial 2): 17.9 SC—Strong Cobb
- Thickness of compact ([3]; listed as Lactate-trial 2): 2.92 mm
- Forms Compact ([3]; listed as Lactate-trial 3): Yes
- Tensile strength of compact ([3]; listed as Lactate-trial 3): 16.1 SC—Strong Cobb
- Thickness of compact ([3]; listed as Lactate-trial 3): 2.97 mm
- Forms Compact ([3]; listed as lactate salt): forms strong compacts without a tendency to cap or chip
- Moisture induced % weight change [4]: 0.08%
- solubility (physchem): > 400 mg/mL
- Hygroscopicity in DVS experiment ([5]; below about 80% r.h., 2.5% relative humidity change per hour): not hygroscopic
- Water uptake in DVS experiment ([5]; exposure to r.h. conditions above 90%): significant water uptake

SMILES: CN1CCN(c2ccc3nc(-c4c(N)c5c(F)cccc5[nH]c4=O)[nH]c3c2)CC1 [Free base]
- Area % at Time = 0 ([2]; 30° C./60% Relative humidity): 97.38 Area %
- Area % at Time = 6 weeks ([2]; 30° C./60% Relative humidity): 97.83 Area %
- Area % at Time = 0 ([2]; 40° C./70% Relative humidity): 97.77 Area %
- Area % at Time = 6 weeks ([2]; 40° C./70% Relative humidity): 98.23 Area %

SMILES: CN1CCN(c2ccc3nc(-c4c(N)c5c(F)cccc5[nH]c4=O)[nH]c3c2)CC1 [Bis-lactate]
- Area % at Time = 0 ([2]; 40° C./70% Relative humidity): 98.99 Area %
- Area % at Time = 6 weeks ([2]; 40° C./70% Relative humidity): 97.92 Area %

SMILES: CC(O)C(=O)O.CN1CCN(c2ccc3nc(-c4c(N)c5c(F)cccc5[nH]c4=O)[nH]c3c2)CC1 [amorphous form]
- Time stable ([6]; 75% relative humidity and 40° C.): more than 2 days
- Stability of the solid form ([6]; ambient conditions): stable
